Data reported in publication PMC2192493 (The Journal of Experimental Medicine, 1996).
One block for each substance: values may come before it.

Columns and labels:
H-2Kd [1] = target: T1, H-2Kd (Mus musculus, UniProt P01902); experiment: Competitive inhibition of 125I-LLO; assay type: binding; conditions: for binding to H-2Kd (in words): peptide-binding inhibition experiments, Fig. 1
H-2Kd [2] = target: T1, H-2Kd; conditions: cited from earlier work
Meth A = experiment: 4-h 51Cr release assay of vaccine-induced effectors, Meth A targets; assay type: cell-based, mouse; conditions: 239CM-induced CTL; separate experiment, data not shown
CMS1 = experiment: 4-h 51Cr release assay of vaccine-induced effectors, CMS1 targets; assay type: cell-based, mouse; conditions: separate experiment, data not shown
[3] = cited from earlier work

T1 sequence (P01902 whole entry, looked up): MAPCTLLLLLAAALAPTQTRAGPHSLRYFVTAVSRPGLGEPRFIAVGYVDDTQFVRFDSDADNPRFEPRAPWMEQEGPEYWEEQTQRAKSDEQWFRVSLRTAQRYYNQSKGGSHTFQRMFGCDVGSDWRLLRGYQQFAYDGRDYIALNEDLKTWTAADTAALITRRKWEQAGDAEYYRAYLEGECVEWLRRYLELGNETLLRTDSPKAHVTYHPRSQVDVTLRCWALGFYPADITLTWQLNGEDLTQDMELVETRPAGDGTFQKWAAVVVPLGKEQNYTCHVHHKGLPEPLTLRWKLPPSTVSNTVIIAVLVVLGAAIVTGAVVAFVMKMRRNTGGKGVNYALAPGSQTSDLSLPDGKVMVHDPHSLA

binding to H-2Kd (in words) (H-2Kd [1]): capable of binding to H-2Ka
Substance: 234CW: wild-type peptide p53(232-240) (KYMCNSSCM; UniProt P02340 232-240, looked up, fragment)

relative binding to H-2Kd (in words) (H-2Kd [1]; compared with other peptides in the same assay): comparable to that of the parent peptide
Substance: GFKDGNEYI [LLO(Y2F), reference compound]

Substance: GYKDGNEYI [LLO]
binding affinity to H-2Kd (in words) (H-2Kd [2]): high affinity

Substance: KYMCNSSFM [239CM]
induction of CTL reactive against Meth A (Meth A): not Meth A | binding to H-2Kd (in words) (H-2Kd [1]): capable of binding to H-2Ka | induction of CTL reactive against CMS1 (CMS1): induced CTL reactive against CMS1

Substance: LFCQLAKTC [132CW]
immunogenicity (in words) [3]: lack of immunogenicity

Substance: LFFQLAKTC [132CM]
immunogenicity (in words) [3]: lack of immunogenicity

Substance: MTEVVRtkCP [168CW]
immunogenicity (in words) [3]: lack of immunogenicity

Substance: MTGVVR.R.CP [168CM]
immunogenicity (in words) [3]: lack of immunogenicity
